Assay results published in US20230220105A1, “TUMOR ACTIVATED T CELL ENGAGERS AND METHODS OF USE THEREOF” (Janux Therapeutics, Inc., priority 2019, published 2023).

Columns and labels:
TCR-3 = experiment: Inhibitory peptide specificity evaluation (BLI); type: binding; details: 100 uM TCR on Peptide-5 saturated biosensor
Description: (§1) Potent inhibitory peptides were tested for TCR specific binding. […] This family of TCRs differ in sequence by point mutations in the CDR domains know to contribute to binding affinity and specificity for cognate MAGE-A3 pMHC. […] TCRs were associated at the extreme concentration of 100 uM onto the inhibitory peptide loaded biosensor. In parallel, 100 uM TCRs were associated on a blank control sensor to establish background signal related to non-specific binding of the TCRs. Association and dissociation signals were monitored in real-time.

TCR-4 = experiment: Inhibitory peptide specificity evaluation (BLI); type: binding; details: 100 uM TCR on Peptide-5 saturated biosensor
Description: as §1

TCR-2 = experiment: Inhibitory peptide specificity evaluation (BLI); type: binding; details: 100 uM TCR on Peptide-5 saturated biosensor
Description: as §1

TCR-1 = experiment: Inhibitory peptide specificity evaluation (BLI); type: binding; details: 100 uM TCR on Peptide-5 saturated biosensor
Description: as §1

[1] = tested on: TCR-1 binding to MAGE-A3 pMHC; experiment: Inhibition of kinetic binding of TCR to its cognate pMHC (BLI); details: Table 3
Description: First, biotinylated pMHC was captured on streptavidin biosensors. Sensors were quenched using excess biocytin and then baselined in buffer. Inhibitory peptide was titrated in a two fold dilution series starting from 100 uM and pre-incubated with a constant concentration of 50 nM TCR. Peptide and TCR mixtures were then associated onto the pMHC loaded biosensor. Zero concentration of inhibitory peptide or zero concentration of TCR were used as controls. Association and dissociation signals were monitored in real-time. The maximal association signal was normalized from 100% (0 uM inhibitory peptide control) to 0% (0 nM TCR control) and plotted versus log-scale inhibitory peptide concentration.

MAGE-A3 TCR (TCR-1) = experiment: Kinetic binding of TCR to peptides (Octet BLI); details: Table 3; Ala mutants of Peptide-5 and controls
Description: BLI based kinetic binding of TCR to peptides was measured using a ForteBio Octet RED96 instrument. Biotinylated peptides were first directly captured on streptavidin biosensors. Sensors were quenched using excess biocytin and then baselined in buffer. A dilution series of TCR was made and associated onto the peptide loaded biosensor. Association and dissociation signals were monitored in real-time. Signals were fit to a 1:1 binding model in order to derive binding constants, kon and koff, as well as KD.

[2] = target: TCR-1 binding to MAGE-A3 pMHC; experiment: Inhibition of equilibrium binding of TCR to its cognate pMHC (ELISA)
Description: Inhibition of TCR binding to its cognate pMHC was also measured in an ELISA format. Biotinylated pMHC was captured on neutravidin coated plates, quenched using excess biocytin, and washed. Inhibitory peptide was titrated in a half-log dilution series starting from 100 uM and pre-incubated with a constant concentration of 1 nM TCR. Inhibitory peptide and TCR mixtures were then incubated on the pMHC captured plates. A secondary HRP antibody conjugate that recognized the histag of the TCR was then used to detect the plate bound TCR. […] Dose dependent decrease of signal was indicative of peptides that compete for TCR binding to its cognate pMHC.

neutravidin alone = neutravidin alone (Gallus gallus, UniProt P02701); experiment: Phagemid ELISA, neutravidin background; type: binding; details: clonal phage displaying the peptide; ELISA signal on neutravidin alone
Description: The next day the deep well plates were centrifuged to separate the soluble phagemid from the E. coli cells. The phagemid containing supernatants were then combined with PBS-Tween 20 (0.05%) + BSA (1%) blocking buffer and incubated in ELISA wells containing Neutravidin captured biotin-conjugated target or Neutravidin alone. After binding at 4 degrees the plates were washed, and specifically bound phage were detected by anti-m13 HRP conjugated antibodies using standard TMB-based chromogenic ELISA procedures. Daughter plates or individual wells were subjected to standard DNA sequencing for clonal peptide sequence identification.
The next day the deep well plates were centrifuged to separate the soluble phagemid from the E. coli cells. The phagemid containing supernatants were then combined with PBS-Tween 20 (0.05%) + BSA (1%) pH neutral blocking buffer and incubated in previously TCR coated and blocked wells. After binding at 4° C. the plates were washed and specifically bound phage were detected by anti-m13 HRP conjugated antibodies using standard TMB-based chromogenic ELISA procedures (FIG. 17B). Daughter plates or individual wells were subjected to standard DNA sequencing for peptide identification.

neutravidin alone, sequence (P02701 25-152): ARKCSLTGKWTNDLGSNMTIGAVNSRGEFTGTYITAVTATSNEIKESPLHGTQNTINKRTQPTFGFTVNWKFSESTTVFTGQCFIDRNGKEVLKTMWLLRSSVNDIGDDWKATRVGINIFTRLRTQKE

SMILES	binding of Peptide-5 to TCR-3 (TCR-3)	binding of Peptide-5 to TCR-4 (TCR-4)	binding of Peptide-5 to TCR-2 (TCR-2)	binding of Peptide-5 to TCR-1 (TCR-1)	Octet BLI Competes at 100 uM [1]	Octet BLI Binds TCR (MAGE-A3 TCR (TCR-1))	IC50 ([2]; Table 2, 1 nM TCR) [nM]	IC50 ([2]; Table 3) [nM]	Phage ELISA NAv bkgd (neutravidin alone)
CC(C)[C@H](NC(=O)CNC(=O)CN)C(=O)N[C@@H](CO)C(=O)N[C@H]1CSSC[C@@H](C(=O)N[C@@H](Cc2c[nH]c3ccccc23)C(=O)N[C@H](C(=O)NCC(=O)NCC(=O)NCC(=O)NCC(=O)N[C@@H](CO)C(=O)NCCOCCOCCOCCOCCC(=O)N[C@@H](CCCCNC(=O)CCCC[C@@H]2SC[C@@H]3NC(=O)N[C@@H]32)C(N)=O)[C@@H](C)O)NC(=O)[C@H](Cc2ccccc2)NC(=O)[C@H](C)NC(=O)[C@H](CCC(=O)O)NC(=O)[C@H](CC(=O)O)NC(=O)[C@H](Cc2ccc(O)cc2)NC(=O)[C@H](C(C)C)NC(=O)[C@H](CC(=O)O)NC(=O)[C@H](CCCCN)NC1=O [Peptide-5]	signal was identical to that of background	signal was identical to that of background	signal was identical to that of background	readily bound	Yes	Yes	600	600	
CC(C)[C@H](NC(=O)[C@@H]1CSSC[C@H](NC(=O)CNC(=O)CNC(=O)CN)C(=O)N[C@@H](Cc2ccccc2)C(=O)N[C@@H](C(C)C)C(=O)N[C@@H](CO)C(=O)N2CCC[C@H]2C(=O)N[C@@H](C)C(=O)N[C@@H]([C@@H](C)O)C(=O)NCC(=O)N[C@@H](Cc2ccccc2)C(=O)N[C@@H]([C@@H](C)O)C(=O)N[C@@H](Cc2c[nH]c3ccccc23)C(=O)N1)C(=O)NCC(=O)NCC(=O)NCC(=O)NCC(=O)N[C@@H](CO)C(=O)NCCOCCOCCOCCOCCC(=O)N[C@@H](CCCCNC(=O)CCCC[C@@H]1SC[C@@H]2NC(=O)N[C@@H]21)C(N)=O [Peptide-17]									0.13
